Several values for one entry are separate records, joined by “and”; a condition that tells them apart may be missing. Equal entries are not always repeated.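 Exposure lasted 48 hours, with cells grown in 96-well plates and compounds tested at five concentrations. The concentration for 50% growth inhibition is given as GI50. At the TGI there is no net growth.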
How the values were obtained:
Assay in all cases: NCI tumour cell line growth inhibition, 48 h
K-562 leukemia = tested on: K-562 leukemia
A498 renal = tested on: A498 renal
OVCAR-3 ovarian = tested on: OVCAR-3 ovarian
EKVX NSCLC = tested on: EKVX NSCLC
NCI-H522 lung = tested on: NCI-H522 lung
RXF 393 renal = tested on: RXF 393 renal
UO-31 renal = tested on: UO-31 renal
ACHN renal = tested on: ACHN renal
SNB-19 CNS = tested on: SNB-19 CNS
BT-549 breast = tested on: BT-549 breast

Row | Structure (SMILES) | TGI (K-562 leukemia) [µM] | TGI (A498 renal) [µM] | TGI (OVCAR-3 ovarian) [µM] | TGI (EKVX NSCLC) [µM] | TGI (NCI-H522 lung) [µM] | TGI (RXF 393 renal) [µM] | TGI (UO-31 renal) [µM] | TGI (ACHN renal) [µM] | TGI (SNB-19 CNS) | TGI (BT-549 breast) | GI50 (EKVX NSCLC) [µM] | GI50 (UO-31 renal) [µM] | GI50 (SNB-19 CNS) [µM] | GI50 (K-562 leukemia) [µM] | GI50 (BT-549 breast) [µM] | GI50 (A498 renal) [µM] | GI50 (OVCAR-3 ovarian) [µM] | GI50 (NCI-H522 lung) [µM] | GI50 (RXF 393 renal) [µM] | GI50 (ACHN renal) [µM]
1 | O=C1CCC2(c3ccc(Cl)cc3)Nc3cc(Cl)ccc3N12 (configuration not stated) | 14.1 | 24.6 | 22.4 | 29.1 | 22.6 | 24.6 | 29.2 | 24 | 42.6 µM | – | – | – | – | – | – | – | – | – | – | –
2 | C=CCC1(c2ccc(OC)cc2)C=CC(=O)CC1 (configuration not stated) | > 100 | – | > 100 | > 100 | > 100 | > 100 | > 100 | > 100 | > 100 µM | > 100 µM | – | – | – | – | – | – | – | – | – | –
3 | CCOC(=O)N[C@H]1CCc2cc(OC)c(OC)c(OC)c2-c2ccc(SC)c(=O)cc21 | > 100 | – | – | > 100 | – | > 100 | > 100 | > 100 | 91.7 µM and > 100 µM | 33.2 µM and > 32.5 µM | < 0.01 | 0.254 | < 0.01 | – | – | – | – | – | – | –
4 | C=CCCCCC1CCC2CCC(CCCCC=C)N12 (configuration not stated) | 42.1 | – | 30.2 | – | 28.3 | – | 27.4 | 28.5 | 35.3 µM | – | – | – | – | – | – | – | – | – | – | –
5 | COc1ccc(C(=O)Nc2ccc(O)c(=O)cc2)cc1 | 77.3 | – | 90 | 59 | 63.1 | 37.3 | 47 | 59.8 | 93.6 µM | > 100 µM | – | – | – | – | – | – | – | – | – | –
6 | CCN1CCN(c2cc(C)c3cc(NC(=O)c4ccc(OC)c(OC)c4)ccc3n2)CC1 | > 100 | 41.1 | 20.1 | – | 16.9 | > 100 | > 73.2 | > 100 | > 100 µM | > 100 µM | – | > 37.4 | > 61 | 2.75 | > 33 | 16.4 | 0.528 | 0.485 | 2.81 | > 34.4
7 | CC12CCC(=O)C[C@H]1CCC(OC=O)C2Br (some centres not stated) | > 100 | > 100 | > 100 | – | > 100 | – | > 100 | > 100 | > 100 µM | – | – | – | – | – | – | – | – | – | – | –
8 | Cc1ccc2nc(/C(=C/c3ccc(/C=C(\NC(=O)c4ccccc4)c4nc5ccc(C)cc5[nH]4)c(C)c3)NC(=O)c3ccccc3)[nH]c2c1 | 45.4 | 53.6 | 22 | > 100 | 42.6 | – | 30.8 | > 100 | > 100 µM | – | – | – | – | – | – | – | – | – | – | –
9 | N=c1c2c(-c3ccccc3)c(-c3ccccc3)n(Cc3ccccc3)c2ncn1C1CCC(O)CC1 (configuration not stated) | 2.64 | 14.4 | 5.63 | – | 5.61 | 2.4 | 1.65 | 12.8 | 17.9 µM | 9.85 µM | – | 0.258 | 1.21 | 0.0976 | 2.55 | 0.345 | 0.488 | 0.576 | 0.374 | 0.0653
10 | COc1ccc(CCN(C)C2CCC(C#N)(c3ccc(OC)c(OC)c3)CC2)cc1OC (configuration not stated) | > 100 | – | > 100 | > 100 | – | > 100 | > 100 | > 100 | > 100 µM | – | – | – | – | – | – | – | – | – | – | –
11 | COC(=O)/C(C#N)=C1\N=NNN1c1ccc(OC)cc1 | > 100 | > 100 | > 100 | > 100 | > 100 | > 100 | > 100 | > 100 | > 100 µM | – | – | – | – | – | – | – | – | – | – | –
12 | CN(C)C(=S)/N=c1\sn(C)/c(=N\C(=S)N(C)C)n1C | > 100 | > 100 | > 100 | > 100 | > 100 | > 100 | > 100 | > 100 | > 100 µM | – | – | – | – | – | – | – | – | – | – | –
13 | COC(=O)/C(=C/c1ccc(OC)cc1)C(C(=O)O)=C1CCCC1 | > 100 | > 100 | – | > 100 | > 100 | > 100 | > 100 | > 100 | > 100 µM | – | – | – | – | – | – | – | – | – | – | –
14 | CCCCCCCCCCCCCCCC(=O)OCCOCCOCCOCc1ccccc1 | – | > 100 | > 100 | > 100 | – | > 100 | – | > 100 | > 100 µM | – | – | – | – | – | – | – | – | – | – | –
15 | COC(=O)/C(=N\NC(N)=S)C(C(=O)OC)C(=O)C(=O)Nc1ccc(C)cc1 (configuration not stated) | > 100 | > 100 | > 100 | > 100 | > 100 | > 100 | > 100 | > 100 | > 100 µM | – | – | – | – | – | – | – | – | – | – | –
16 | COC1C(OC(=S)Nc2ccccc2)c2ccccc2N1C(C)=O (configuration not stated) | > 100 | > 100 | > 100 | > 100 | – | > 100 | > 100 | > 100 | > 100 µM | – | – | – | – | – | – | – | – | – | – | –
17 | NC1CCN(Cc2ccccc2)CC1 | > 100 | – | > 100 | – | > 100 | > 100 | > 100 | > 100 | > 100 µM | – | – | > 100 | > 100 | > 100 | – | – | > 100 | > 100 | 8.22 | > 100
18 | CC1=Cc2cccc(C)c2C(=O)C1=O | – | 30.9 | 6.78 | 24.5 | 9.87 | 8.85 | 27.1 | – | 45.3 µM | – | – | – | – | – | – | – | – | – | – | –
19 | O=C(/C(=C/c1ccc(Cl)cc1)c1ccccc1)c1ccccc1 | > 100 | 44.9 | – | 72.4 | 34.7 | – | > 100 | 39.5 | – | – | – | – | – | – | – | – | – | – | – | –
20 | CCOC(=O)c1nc2c(OC)nn(O)cc-2c1[N+](=O)[O-] | 36.8 | 36.2 | 35.2 | 36.4 | 36.9 | 29.3 | 42.4 | 31 | 62.8 µM | – | – | – | – | – | – | – | – | – | – | –
21 | N#Cc1nn(-c2cc(=O)[nH]c3ccc(Cl)cc23)c(N)c1C#N | – | > 100 | > 100 | > 100 | > 100 | – | > 100 | > 100 | > 100 µM | > 100 µM | 11.5 | > 100 | > 100 | – | > 100 | > 100 | > 100 | > 100 | – | > 100
22 | O=C1N=C2Sc3ccc4ccccc4c3N2C1=O | > 100 | – | 37.1 | 47.9 | – | 37 | 33.3 | 82.3 | 45.8 µM | – | – | – | – | – | – | – | – | – | – | –
23 | COCC(OC)C(CC=C(C#N)C#N)OC (configuration not stated) | > 100 | > 100 | > 100 | > 100 | > 100 | – | > 100 | > 100 | > 100 µM | – | – | – | – | – | – | – | – | – | – | –
